Measured values from US6867206B1, “6-carboxyphenyldihydropyridazinone derivatives and use thereof” (Bayer Aktiengesellschaft, priority 1999, dated 2005).

Structure (SMILES) | melting point
CC1CC(=O)NN=C1c1ccc(C(=O)Nc2cccnc2)cc1 (stereo not shown) [Example 53] | 267 to 268 °C
CC(OC(=O)c1ccc(C2=NNC(=O)CC2)cc1)C1CC1 (stereo not shown) [Example 38] | 104 to 105 °C
O=C1CCC(c2ccc(C(=O)NCc3ccc(Cl)c(Cl)c3)cc2)=NN1 [Example 30] | 208 to 209 °C
NC(=O)c1ccccc1NC(=O)c1ccc(C2=NNC(=O)CC2)cc1 [Example 51] | > 250 °C
O=C1CCC(c2ccc(C(=O)N3CCOCC3)cc2)=NN1 [Example 29] | 202 to 203 °C
CC(C)OC(=O)c1ccc(C2=NNC(=O)CC2)cc1 [Example 9] | 155 to 156 °C
O=C1CCC(c2ccc(C(=O)Nc3c(Cl)cccc3Cl)cc2)=NN1 [Example 8] | > 250 °C
CCC(C)OC(=O)c1ccc(C2=NNC(=O)CC2)cc1 (stereo not shown) [Example 33] | 120 to 122 °C
CC1CC(=O)NN=C1c1ccc(C(=O)Nc2ccc3ccccc3c2)cc1 (stereo not shown) [Example 55] | 271 to 272 °C
CC(C)COC(=O)c1ccc(C2=NNC(=O)CC2)cc1 [Example 32] | 259 to 260 °C
CN(C(=O)c1ccc(C2=NNC(=O)CC2)cc1)c1ccccc1 [Example 42] | 208 to 209 °C
O=C1CCC(c2ccc(C(=O)NCc3ccccc3F)cc2)=NN1 [Example 49] | 186 to 187 °C
CC(C)CNC(=O)c1ccc(C2=NNC(=O)CC2C)cc1 (stereo not shown) [Example 62] | 166 to 167 °C
O=C1CCC(c2ccc(C(=O)Nc3c(F)cccc3F)cc2)=NN1 [Example 45] | 278 to 279 °C
CCNC(=O)c1ccc(C2=NNC(=O)CC2)cc1 [Example 15] | 228 to 230 °C
O=C1CCC(c2ccc(C(=O)NCCc3ccccc3)cc2)=NN1 [Example 10] | 223 to 226 °C
O=C1CCC(c2ccc(C(=O)NCc3ccccn3)cc2)=NN1 [Example 17] | 228 to 230 °C
O=C1CCC(c2ccc(C(=O)NCc3cccnc3)cc2)=NN1 [Example 20] | 220 to 223 °C
COC(=O)c1ccc(C2=NNC(=O)CC2)cc1 [Example 6] | 203 to 205 °C
CC(NC(=O)c1ccc(C2=NNC(=O)CC2)cc1)c1ccccc1 (stereo not shown) [Example 23] | 242 to 243 °C
CC(C)CCNC(=O)c1ccc(C2=NNC(=O)CC2C)cc1 (stereo not shown) [Example 58] | 152 to 153 °C
O=C1CCC(c2ccc(C(=O)NCCc3ccccc3F)cc2)=NN1 [Example 43] | 189 to 190 °C
NC(=O)c1ccsc1NC(=O)c1ccc(C2=NNC(=O)CC2)cc1 [Example 47] | > 250 °C
O=C1CCC(c2ccc(C(=O)Nc3cccc(Cl)c3)cc2)=NN1 [Example 22] | > 250 °C
CCCOC(=O)c1ccc(C2=NNC(=O)CC2)cc1 [Example 31] | 283 to 284 °C
O=C1CCC(c2ccc(C(=O)NCc3cccc4ccccc34)cc2)=NN1 [Example 16] | 258 to 260 °C
O=C1CCC(c2ccc(C(=O)OCC3CCC3)cc2)=NN1 [Example 40] | 155 to 156 °C
O=C1CCC(c2ccc(C(=O)NC3CC3)cc2)=NN1 [Example 11] | 248 to 250 °C

Structure (SMILES) | melting point
CC1CC(=O)NN=C1c1ccc(C(=O)NCC(c2ccccc2)c2ccccc2)cc1 (stereo not shown) [Example 59] | 186 to 187 °C
COc1ccc(CCNC(=O)c2ccc(C3=NNC(=O)CC3C)cc2)cc1 (stereo not shown) [Example 60] | 245 to 246 °C
O=C1CCC(c2ccc(C(=O)OCC3CC3)cc2)=NN1 [Example 34] | 158 to 159 °C
O=C1CCC(c2ccc(C(=O)NCc3ccco3)cc2)=NN1 [Example 5] | 208 to 210 °C
CC1CC(=O)NN=C1c1ccc(C(=O)Nc2cccc3ccccc23)cc1 (stereo not shown) [Example 54] | 266 to 267 °C
CNC(=O)c1ccc(C2=NNC(=O)CC2)cc1 [Example 14] | 233 to 234 °C
O=C1CCC(c2ccc(C(=O)Nc3ccccc3Cl)cc2)=NN1 [Example 18] | 209 to 210 °C
COC(=O)c1ccc(NC(=O)c2ccc(C3=NNC(=O)CC3)cc2)o1 [Example 24] | > 260 °C
O=C1CCC(c2ccc(C(=O)N3CCCCC3)cc2)=NN1 [Example 19] | 182 to 184 °C
CCOC(=O)c1ccc(C2=NNC(=O)CC2)cc1 [Example 12] | 157 to 159 °C
O=C1CCC(c2ccc(C(=O)Nc3cccc(C(F)(F)F)c3)cc2)=NN1 [Example 28] | 229 to 230 °C
C=CCOC(=O)c1ccc(C2=NNC(=O)CC2)cc1 [Example 36] | 131 to 133 °C
O=C1CCC(c2ccc(C(=O)OCCc3ccccc3)cc2)=NN1 [Example 39] | 146 to 148 °C
COc1cccc(CCNC(=O)c2ccc(C3=NNC(=O)CC3C)cc2)c1 (stereo not shown) [Example 61] | 164 to 165 °C
O=C1CCC(c2ccc(C(=O)Nc3ccccc3)cc2)=NN1 [Example 13] | > 250 °C
O=C1CCC(c2ccc(C(=O)OC3CCCC3)cc2)=NN1 [Example 35] | 167 to 169 °C
CC1CC(=O)NN=C1c1ccc(C(=O)NC2CC2)cc1 (stereo not shown) [Example 57] | 216 to 217 °C
O=C1CCC(c2ccc(C(=O)N3CCCc4ccccc43)cc2)=NN1 [Example 25] | 215 to 216 °C
O=C1CCC(c2ccc(C(=O)NC3CCCCC3)cc2)=NN1 [Example 27] | 249 to 250 °C
O=C1CCC(c2ccc(C(=O)OCc3ccccc3)cc2)=NN1 [Example 41] | 156 to 157 °C
CC1CC(=O)NN=C1c1ccc(C(=O)N2CCCc3ccccc32)cc1 (stereo not shown) [Example 56] | > 260 °C
Cc1ccc(NC(=O)c2ccc(C3=NNC(=O)CC3)cc2)cc1 [Example 21] | > 250 °C
COc1ccc(CCNC(=O)c2ccc(C3=NNC(=O)CC3C)cc2)cc1OC (stereo not shown) [Example 63] | 146 to 147 °C
CCCCNC(=O)c1ccc(C2=NNC(=O)CC2)cc1 [Example 4] | 217 to 218 °C
O=C1CCC(c2ccc(C(=O)NCCc3cccs3)cc2)=NN1 [Example 44] | 215 to 216 °C
CN(CCOC(=O)c1ccc(C2=NNC(=O)CC2)cc1)Cc1ccccc1 [Example 37] | 90 to 91 °C
O=C1CCC(c2ccc(C(=O)NCc3ccccc3)cc2)=NN1 [Example 7] | 208 to 209 °C
